Assay [1] relates to Ba/F3-Flt3-transfected cells in the presence of 10 ng/ml murine IL3. Put plainly: Ba/F3-Flt3 (plus IL3) cellular proliferation counterscreen, Alamar Blue. The settings on record: Mus musculus; plus 10 ng/ml murine IL3; read-out: BAF3-FLT3 (PLUS IL3) 384 well pIC50 (converted). It counts as cell-based. Background: Counterscreens check selectivity or assay interference.
Assay [2] deals with Ba/F3-FGFR3-transfected cells (Homo sapiens, UniProt P22607). Put plainly: Ba/F3-FGFR3 (minus IL3) cellular proliferation assay, Alamar Blue. It counts as cell-based. Particulars: minus IL3, 384 well. In outline: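 FGFR3-Ba/F3 cells, 20000/well (384-well) or 10000/well (96-well), phenol red free RPMI + 10% FBS; cpd in DMSO; 24 h, 37 °C/5% CO2; Alamar Blue 4 h; RFU ex540/em590.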
Ba/F3-FGFR3-transfected cells, sequence (P22607 whole entry, change not shown): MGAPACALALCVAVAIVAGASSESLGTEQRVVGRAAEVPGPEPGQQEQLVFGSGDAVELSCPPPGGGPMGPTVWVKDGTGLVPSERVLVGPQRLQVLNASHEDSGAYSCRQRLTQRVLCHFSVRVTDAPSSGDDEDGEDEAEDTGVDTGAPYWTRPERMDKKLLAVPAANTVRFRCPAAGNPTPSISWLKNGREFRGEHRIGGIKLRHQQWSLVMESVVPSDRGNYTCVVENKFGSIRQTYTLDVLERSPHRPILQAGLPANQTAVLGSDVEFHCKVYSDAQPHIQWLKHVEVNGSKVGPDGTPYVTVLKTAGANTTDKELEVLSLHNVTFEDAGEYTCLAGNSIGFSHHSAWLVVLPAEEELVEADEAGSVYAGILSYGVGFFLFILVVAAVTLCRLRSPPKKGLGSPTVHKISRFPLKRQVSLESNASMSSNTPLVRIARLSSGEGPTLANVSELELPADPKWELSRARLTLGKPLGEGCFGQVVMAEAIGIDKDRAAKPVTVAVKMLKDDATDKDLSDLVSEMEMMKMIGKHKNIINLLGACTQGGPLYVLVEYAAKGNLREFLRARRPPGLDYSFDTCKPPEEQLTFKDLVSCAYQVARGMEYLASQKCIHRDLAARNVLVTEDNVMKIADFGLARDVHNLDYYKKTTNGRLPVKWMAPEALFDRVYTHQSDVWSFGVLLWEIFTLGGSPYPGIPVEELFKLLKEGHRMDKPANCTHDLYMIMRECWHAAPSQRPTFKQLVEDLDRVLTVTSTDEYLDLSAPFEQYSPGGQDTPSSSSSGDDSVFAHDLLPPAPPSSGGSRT

The next assay addresses FGFR3 (h) (Homo sapiens, UniProt P22607). The experiment in a line: FGFR3 (enzymatic assay), TR-FRET. It is filed as biochemical. Particulars: read-out: FGFR 3 pIC50 (converted). As for the experimental part: In a final reaction volume of 30 μL, FGFR3 (h) (40 ng/ml) was incubated with 50 mM HEPES pH 7.5, 6 mM MnCl2, 1 mM DTT, 0.1 mM Na3VO4, 0.01% Triton-X-100, 500 nM Btn-Flt3 and 25 μM ATP in the presence of compound (1% DMSO final). […] Time-Resolved Fluorescence Resonance Energy Transfer (TR-FRET) signal (ex340 nm. Em 620 nm, em 655 nm) was measured afterwards and results are expressed in RFU (Relative Fluorescence Units).
(Time-resolved FRET reads energy transfer from a long-lived donor to a nearby acceptor.)

The target of a further assay is FGFR4 (h) (Homo sapiens, UniProt P22455). The experiment in a line: FGFR4 (enzymatic assay), TR-FRET. It counts as biochemical. The settings on record: read-out: FGFR 4 pIC50 (converted). The method, then: In a final reaction volume of 30 μL, FGFR4 (h) (60 ng/ml) was incubated with 50 mM HEPES pH 7.5, 6 mM MnCl2, 1 mM DTT, 0.1 mM Na3VO4, 0.01% Triton-X-100, 500 nM Btn-Flt3 and 5 μM ATP in the presence of compound (1% DMSO final). […] Time-Resolved Fluorescence Resonance Energy Transfer (TR-FRET) signal (ex340 nm. Em 620 nm, em 655 nm) was measured afterwards and results are expressed in RFU (Relative Fluorescence Units).
FGFR4 (h), sequence (P22455 22-802): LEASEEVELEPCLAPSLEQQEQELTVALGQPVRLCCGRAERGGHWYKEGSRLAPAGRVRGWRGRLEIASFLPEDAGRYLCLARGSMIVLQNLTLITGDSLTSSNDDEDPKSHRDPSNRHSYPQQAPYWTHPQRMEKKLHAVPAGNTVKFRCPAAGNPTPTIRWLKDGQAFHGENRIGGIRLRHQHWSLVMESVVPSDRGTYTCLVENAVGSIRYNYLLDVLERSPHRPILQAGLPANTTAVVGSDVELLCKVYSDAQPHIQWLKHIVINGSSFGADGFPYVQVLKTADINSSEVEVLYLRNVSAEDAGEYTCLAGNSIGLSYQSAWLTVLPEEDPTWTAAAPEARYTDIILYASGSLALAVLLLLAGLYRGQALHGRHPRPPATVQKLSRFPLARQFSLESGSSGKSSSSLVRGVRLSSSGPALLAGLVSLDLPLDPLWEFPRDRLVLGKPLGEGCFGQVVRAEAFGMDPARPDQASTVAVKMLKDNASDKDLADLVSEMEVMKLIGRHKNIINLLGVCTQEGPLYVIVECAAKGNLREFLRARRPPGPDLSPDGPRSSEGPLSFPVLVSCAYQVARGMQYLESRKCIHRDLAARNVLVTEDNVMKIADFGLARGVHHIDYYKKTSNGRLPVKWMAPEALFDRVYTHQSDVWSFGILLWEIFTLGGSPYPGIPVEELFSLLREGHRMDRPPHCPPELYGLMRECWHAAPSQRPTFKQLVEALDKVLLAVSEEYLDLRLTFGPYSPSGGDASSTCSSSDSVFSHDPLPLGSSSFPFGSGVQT

For another assay, the target named is FGFR1 (h) (Homo sapiens, UniProt P11362). Put plainly: FGFR1 (enzymatic assay), TR-FRET. It is filed as biochemical. The settings on record: read-out: FGFR 1 pIC50 (converted). As for the experimental part: In a final reaction volume of 30 μL, FGFR1 (h) (25 ng/ml) was incubated with 50 mM HEPES pH 7.5, 6 mM MnCl2, 1 mM DTT, 0.1 mM Na3VO4, 0.01% Triton-X-100, 500 nM Btn-Flt3 and 5 μM ATP in the presence of compound (1% DMSO final). […] Time-Resolved Fluorescence Resonance Energy Transfer (TR-FRET) signal (ex340 nm. Em 620 nm, em 655 nm) was measured afterwards and results are expressed in RFU (Relative Fluorescence Units).
FGFR1 (h), sequence (P11362 22-822): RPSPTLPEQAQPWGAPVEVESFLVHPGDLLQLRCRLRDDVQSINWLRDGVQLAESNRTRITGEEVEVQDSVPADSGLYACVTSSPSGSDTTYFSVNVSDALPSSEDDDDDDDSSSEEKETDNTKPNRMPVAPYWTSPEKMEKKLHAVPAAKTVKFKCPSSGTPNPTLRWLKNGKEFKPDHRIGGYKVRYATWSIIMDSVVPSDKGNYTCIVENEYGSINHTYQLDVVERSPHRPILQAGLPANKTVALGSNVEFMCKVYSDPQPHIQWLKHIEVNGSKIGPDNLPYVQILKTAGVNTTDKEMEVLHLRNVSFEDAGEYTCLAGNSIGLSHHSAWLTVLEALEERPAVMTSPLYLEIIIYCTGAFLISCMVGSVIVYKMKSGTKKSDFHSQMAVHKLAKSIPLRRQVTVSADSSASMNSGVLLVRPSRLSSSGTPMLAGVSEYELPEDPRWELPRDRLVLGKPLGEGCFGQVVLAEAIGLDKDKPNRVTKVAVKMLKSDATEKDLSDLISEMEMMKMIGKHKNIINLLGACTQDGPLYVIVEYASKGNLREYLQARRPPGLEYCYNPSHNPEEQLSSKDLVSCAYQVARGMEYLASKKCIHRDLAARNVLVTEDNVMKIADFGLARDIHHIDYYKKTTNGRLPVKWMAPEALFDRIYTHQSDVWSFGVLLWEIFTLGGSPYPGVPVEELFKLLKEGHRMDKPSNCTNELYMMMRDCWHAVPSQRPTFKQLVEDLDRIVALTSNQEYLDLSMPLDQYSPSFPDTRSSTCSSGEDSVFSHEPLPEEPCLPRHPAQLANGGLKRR

Bounds are passed on as bounds.

FGFR3 (h), sequence (P22607 23-806): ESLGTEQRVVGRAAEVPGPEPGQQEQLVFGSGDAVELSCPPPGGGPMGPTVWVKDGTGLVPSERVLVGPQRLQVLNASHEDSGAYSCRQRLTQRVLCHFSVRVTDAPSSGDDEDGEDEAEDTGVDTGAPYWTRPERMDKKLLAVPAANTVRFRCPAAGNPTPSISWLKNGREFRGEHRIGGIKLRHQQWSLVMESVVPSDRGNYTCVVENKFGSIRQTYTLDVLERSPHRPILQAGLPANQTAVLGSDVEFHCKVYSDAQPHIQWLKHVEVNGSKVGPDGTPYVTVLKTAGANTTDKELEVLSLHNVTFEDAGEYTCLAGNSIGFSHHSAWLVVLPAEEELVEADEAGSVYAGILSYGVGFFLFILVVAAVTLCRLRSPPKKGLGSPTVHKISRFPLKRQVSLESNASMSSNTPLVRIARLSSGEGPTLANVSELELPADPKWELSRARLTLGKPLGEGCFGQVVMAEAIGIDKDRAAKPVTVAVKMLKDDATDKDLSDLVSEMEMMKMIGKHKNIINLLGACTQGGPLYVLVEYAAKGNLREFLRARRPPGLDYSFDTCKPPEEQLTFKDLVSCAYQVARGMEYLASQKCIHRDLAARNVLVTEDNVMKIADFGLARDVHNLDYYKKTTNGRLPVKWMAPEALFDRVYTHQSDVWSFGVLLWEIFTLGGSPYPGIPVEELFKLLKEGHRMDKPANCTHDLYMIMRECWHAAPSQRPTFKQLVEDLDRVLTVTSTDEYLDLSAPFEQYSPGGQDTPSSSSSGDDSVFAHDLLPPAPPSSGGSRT

As for `COc1cc(OC)cc(N(CCO)c2ccc3ncc(-c4ccnc(C(=O)NCCCN)c4)nc3c2)c1` [Compound 123], the IC50 in assay [1] was greater than 10000 nM; on FGFR3 (h) it was 14.5 nM; on FGFR4 (h) it was 245 nM; at FGFR1 (h), 18.6 nM. Further, the “BAF3-FGFR 3 (MIN IL3) 384 well pIC50” value in assay [2] worked out at 5.57.
For `COc1cc(OC)cc(N(CCCO)c2ccc3ncc(-c4ccc(N5CCOCC5)nc4)nc3c2)c1` [Compound 124] the same measures were greater than 10000 nM, 3.39 nM, 33.1 nM, 6.92 nM and roughly 6.64.
For `COc1cc(OC)cc(N(CCCNCC(F)(F)F)c2ccc3ncc(-c4ccc(N(C)C(=O)OC(C)(C)C)nc4)nc3c2)c1` [Compound 127] the same measures were greater than 10000 nM, 331 nM, 912 nM, 257 nM and less than 5.
On to `COc1cc(OC)cc(N(CCCO)c2ccc3ncc(-c4ccnc(NC(=O)OC(C)(C)C)c4)nc3c2)c1` [Compound 128], for which the IC50 in assay [1] is greater than 10000 nM; on FGFR3 (h) it was 33.9 nM; on FGFR4 (h) it was greater than 1000 nM; at FGFR1 (h), 182 nM. The “BAF3-FGFR 3 (MIN IL3) 384 well pIC50” value in assay [2] is reported as less than 5.

(Values after patent US10052320B2, “Substituted quinoxalines as FGFR kinase inhibitors” (ASTEX THERAPEUTICS LIMITED, priority 2011, dated 2018).)
